The subject of one assay is 3T3-L1 / MEFs. The experiment in a line: Adipocyte differentiation assay, induction, Oil Red O staining. The class given is cell-based, mouse. The note with it: induction assay, Oil Red O. As for the experimental part:
This example describes an assay for determining adipocyte differention. Compounds are tested to see whether they induce adipocyte differentiation and also to see whether they inhibit adipocyte differention.
MEFs were grown in AmnioMax basal medium (Gibco) supplemented with 7.5% Amniomax supplement C-100 (Gibco), 7.5% Fetal Bovine Serum (FBS), 2 mM Glutamine, 62.5 μg/ml penicillin and 100 μg/ml Streptomycin (growth medium). At confluence, MEFs were induced to differentiation in growth medium with the addition of 1 microM dexamethasone (Sigma) 0.5 mM isobutylmethylxanthine (Sigma), 5 microg/ml insulin (Sigma) and 10 microM test compound dissolved in DMSO or DMSO alone. Medium was subsequently renewed every 48 hrs with growth media supplemented with 5 microg/ml Insulin and ligand or DMSO.
Briefly, to test compounds as inducers of adipocyte differentiation, 3T3-L1 are grown to confluence in DMEM with 10% Calf serum (CS), typically in 24 well dishes. At 2 days post confluence (day 0), cells are induced to differentiate with DMEM supplemented with 10% fetal bovine serum (FBS), 1 μM dexamethasone and the test compound ([…], 1 and 10 microM). BRL49653 (1.0 μM dissolved in 100% Me2SO) is used as a positive control. After 48 h, the cells are re-fed with DMEM containing 10% FBS supplemented with the test compound or the positive control. From day 4, cells are grown in DMEM with 10% FBS and are changed every second day until day 8. At day 8, cells are stained with Oil Red O as described below.
Cells cultured as described above are used for Oil Red staining. Dishes are washed in PBS and cells were fixed in 3.7% paraformaldehyde for 1 h and stained with oil red O as described in (Hansen et al 1999). Oil red O solution stock solution is prepared by dissolving 0.5 g of Oil Red O (Sigma) in 100 ml of isopropanol. Oil re O working solution is prepared by diluting a stock solution with water (6:4) followed by filtration.
Table II summarizes results obtained with different analogs of DPD (SN1), “0” representing similar results to DPD, “−1” representing even less adipocyte differentiation, “+1” representing more adipocyte differentiation (both relative to DPD) and “−” meaning not assayed.

The subject of another assay is HaCaT. The experiment in a line: Proliferation of non-cancer cell line HaCaT, flow cytometry. The class given is cell-based. The note with it: 20 microM, 48 hours of treatment. As for the experimental part:
(§1) A human cervical carcinoma cell line (HeLa) engineered to stably express a recombinant biosensor reporter activity and a non-cancer cell line, HaCaT (Boukamp et al., 1988, J. Cell Biol 106(3):761-771) was used with a Caspa Tag kit (commercially available eg from Chemicon). The detection of proliferation was carried out using a high content screening automated flow cytometer.
(§2) DPD (Substance 1) was diluted to 20 microM in cell culture medium without serum adjusted to 1% DMSO. Detection of cellular events was performed in duplicate in 96-well plates after 48 hours of treatment in the FL2 (dilution of a proliferative marker) channels of a HTS flow cytometer (FACS Calibur HTS, Becton Dickenson). At day 1, cells were seeded in 96 well plates. Cells were treated with DPD and the appropriate controls on day 2 and analysis was carried out on day 4.
On the technique in general: Flow cytometry measures light scatter and fluorescence of single cells or particles in a stream.

The target of another assay is T1, hRXRαLBD (Homo sapiens, UniProt P19793).
T1 construct: expressed in transfected cells
T1 sequence (P19793 227-458 limits assumed): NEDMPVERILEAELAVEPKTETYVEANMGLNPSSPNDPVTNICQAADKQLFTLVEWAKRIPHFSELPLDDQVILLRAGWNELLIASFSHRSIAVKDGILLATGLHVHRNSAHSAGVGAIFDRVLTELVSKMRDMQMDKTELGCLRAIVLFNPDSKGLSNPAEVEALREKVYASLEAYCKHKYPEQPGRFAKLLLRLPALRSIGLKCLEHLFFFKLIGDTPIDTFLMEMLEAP
The experiment in a line: RXR transactivation assay (hRXRαLBD). The class given is cell-based. As for the experimental part:
This example describes a retinoic acid X receptor transactivation assay.
Compounds are tested for their ability to transactivate RXR essentially as described in Example 1.

A further assay has as its system 3T3-L1 preadipocytes. Kind of assay: Glucose uptake assay. The note with it: SN1. More on the design: dose or concentration left out as unconfirmed. The format is cell-based. As for the experimental part:
Glucose uptake assays are important to establish the suitability of a compound for the treatment of insulin resistance.
Briefly, 3T3-L1 preadipocytes are grown in 12-well plates until confluence. Cells are washed with serum-free DMEM and incubated with 1 ml of the same medium at 37° C. for 1-2 h. The cells are then washed with […] (KRP) buffer and then incubated with 0.9 ml KRP buffer at 37° C. for 30 min. Insulin is added to the cells at 0, 0.3, 1 and 3 nM final concentration and incubated for 15 min at 37° C. Glucose uptake is initiated by the addition of 0.1 ml of Krebs-Ringer phosphate (KRP) buffer supplemented with 10 mM [^3H] 2-deoxy-D-glucose (1 mCi/l). After a 10 minute incubation at 37° C., the medium is aspirated and plates washed with ice-cold PBS to terminate the induced glucose uptake. The cells are lyzed with 0.5 ml 1% Triton X-100 and radioactivity levels determined using a scintillation counter. The results are depicted in FIG. 7.

For assay [1], the system named is human cervical carcinoma cell line (HeLa). The experiment in a line: Inhibition of cancer cell proliferation, HeLa, flow cytometry. The format is cell-based. The note with it: 48 hours of treatment, read-out: inhibition of proliferation of HeLa cells. As for the experimental part:
as §1, §2

The subject of the next assay is human pre-adipocytes. Kind of assay: Adipocyte differentiation assay using human pre-adipocytes. The class given is cell-based. The note with it: similar to DMSO.
A further assay has as its target T2, mPPARdeltaLBD (Mus musculus, UniProt P35396).
T2 construct: expressed in transfected cells
T2 sequence (P35396 210-438 limits assumed): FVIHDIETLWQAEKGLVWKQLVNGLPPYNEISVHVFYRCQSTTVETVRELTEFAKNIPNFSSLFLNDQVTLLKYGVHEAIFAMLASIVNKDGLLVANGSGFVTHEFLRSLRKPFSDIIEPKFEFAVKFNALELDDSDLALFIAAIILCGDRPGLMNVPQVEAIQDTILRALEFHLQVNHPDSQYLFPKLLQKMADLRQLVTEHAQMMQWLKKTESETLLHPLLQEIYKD
Kind of assay: PPARdelta transactivation assay (mPPARdeltaLBD). The class given is cell-based. As for the experimental part: This example describes a transactivation assay for determining PPARdelta modulating activity.
DPD and other ligands are tested for their ability to transactivate PPARdelta essentially as described in Example 1.

The values below come from patent US20140288110A1, “PPAR MODULATORS” (EVOLVA SA, priority 2006, published 2014).

Take `O=C(O)CC/C=C\C[C@@H]1CO[C@H](c2ccccc2Cl)O[C@@H]1c1ccccc1O` (racemic) [SN1, 4-(Z)-6-(2-o-chlorophenyl-4-o-hydroxyphenyl-1,3-dioxan-cis-5-yl) hexenoic acid]: the “induction of adipocyte differentiation (red staining), in words” value in the assay with 3T3-L1 / MEFs was “very little red staining”. The “effect on the non-cancer cell line HaCaT” value with HaCaT is recorded as “no effect”. Besides, the “increase of RXR transactivation” value on hRXRαLBD is given as “no transactivation”. The “glucose uptake compared with Avandia” value in the assay on 3T3-L1 preadipocytes is given as “same level of glucose uptake”. Also, the inhibition at 20 µM in assay [1] is 90%. In addition, in the assay with human pre-adipocytes, the “red staining in human pre-adipocytes” value is “very little red staining”. Further, the “increase of PPAR delta transactivation” value at mPPARdeltaLBD is given as “no or little increase in transactivation”.
